Laboratory results from publication PMC7884711, “Identification of efficient prokaryotic cell-penetrating peptides with applications in bacterial biotechnology” (Communications Biology, 2021).
Where no end group is shown, it is not given here.

What was measured:
E. coli DH5α cells [1] = assay: Penetration efficiency of TAMRA-labeled CPPs, electroporation-based method, flow cytometry; assay type: cell-based, Escherichia coli; settings: electrocompetent E. coli DH5α, 5 μg TAMRA-CPP, electroporation 1.8 kV; for Cell penetration efficiency (TAMRA fluorescence), Electrooration - Tris buffer: 20 mM Tris-HCl pH 7.5, 1 h; for Cell penetration efficiency (TAMRA fluorescence), Electrooration - DW: distilled water, 1 h
Description: (§1) (Fig. 2a). […] First, we prepared electrocompetent and chemically competent cells.

E. coli DH5α cells [2] = assay: Penetration efficiency of TAMRA-labeled CPPs, chemical (CaCl2) treatment method, flow cytometry; assay type: cell-based, Escherichia coli; settings: for Cell penetration efficiency (TAMRA fluorescence), Chemical (CaCl2) method - Tris buffer / Cell penetration efficiency (TAMRA fluorescence), Chemical (CaCl2) method - DW: 50 mM CaCl2-treated E. coli DH5α, 5 μg TAMRA-CPP; for Cell penetration efficiency (TAMRA fluorescence), Chemical (CaCl2) method - Tris buffer: 20 mM Tris-Cl pH 7.5, 1 h; for Cell penetration efficiency (TAMRA fluorescence), Chemical (CaCl2) method - DW: 5 × 10^7 cells/50 μL, distilled water, 1 h
Description: as §1

E. coli DH5α cells [3] = assay: Inhibition of bacterial cell growth by CPPs (Max OD600 relative to control); assay type: cell-based, Escherichia coli; settings: for Max OD (%) (Figure 3f): E. coli DH5α diluted 1/1000 in LB, 5 μg TAMRA-CPP (0.1 μg/μL), OD600 monitored 18 h, max OD of treated cells / max OD of control cells
Experimental: E. coli DH5α cells were grown until OD600 = 1 at 37 °C with shaking at 200 rpm. […] Then, cell growth (OD600) was monitored for 18 h by using the Synergy^TM H1 hybrid multi-mode microplate reader (BioTek, Vermont, USA). As a control, we used E. coli cells that were not treated with CPPs.

E. coli DH5α cells [4] = assay: Penetration efficiency of TAMRA-labeled CPPs, non-treated cells (control method), flow cytometry; settings: 5 μg TAMRA-labeled CPP (0.1 μg/μL), 1 h, PBS washes
Experimental: For the evaluation and optimization of the electroporation-based method, five efficient CPPs were selected from the previous reports[45],[46] […] The CPP were labeled with TAMRA to trace their penetration into the cytoplasm. First, we prepared electrocompetent and chemically competent cells[46]. As a negative control, we also prepared non-treated cells. After treating the five TAMRA-labeled CPP peptides, either distilled water or 20 mM Tris-Cl (pH = 7.5) was added as a buffer to the E. coli–CPP mixture and incubated at 37 °C for 1 h. After washing the cells, their fluorescence intensities were measured by flow cytometry to quantify CPP delivery efficiency.
Prepared cells at a density of 5 × 10^7 cells/50 μL were treated with 5 μg of TAMRA-labeled CPPs (0.1 μg/μL) and incubated for 1 h at room temperature. After incubation, the cells were washed with 1 × PBS and centrifuged at 7000 rpm for 10 min three times to remove extracellular CPPs.
Then, the cells were washed with 1 × PBS and centrifuged at 7000 rpm for 10 min three times. The fluorescence intensity of the CPPs in E. coli cells was quantitatively measured using a Guava EasyCyte flow cytometer (Millipore, Darmstadt, Germany) with an excitation wavelength of 547 nm and an emission wavelength of 580 nm.

[5] = test system: wild-type and tetA plasmid-harboring E. coli; assay: NiCl2 susceptibility, colony counts on LB agar; assay type: cell-based, Escherichia coli; settings: for Number of colonies, Plasmid-harboring cells: E. coli with tetA plasmid; for Number of colonies, Plasmid-harboring cells / Number of colonies, Wild-type cells: LB agar, 37 °C 24 h; for Number of colonies, Wild-type cells: E. coli
Description: Additionally, for the counterselection of plasmid-removed cells, we inserted the tetracycline resistance gene (tetA) into the plasmid to be removed. With the plasmid, the cells can survive in tetracycline media but not in Ni^2+ media. Conversely, without the plasmid, the cells cannot survive in tetracycline media but can survive in Ni^2+ media. The tetA gene induces host cells to accumulate twice as much Ni^2+ as normal cells, so tetA-containing cells are more susceptible to NiCl2 toxicity than normal cells. To determine a suitable Ni^2+ concentration for the selection of plasmid-removed cells, wild-type E. coli cells and tetracycline-resistant cells harboring the tetA gene in the plasmid were grown on Luria–Bertani (LB) agar plates containing 1–4 mM NiCl2. As shown in Supplementary Table 1, after incubation at 37 °C for 24 h, wild-type E. coli cells were capable of growing on LB agar plates containing up to 2.2 mM NiCl2. […] Therefore, we chose 2.0 mM NiCl2 as the selection concentration (Supplementary Table 1).
(§2) To investigate the susceptibility of tetA-harboring E. coli and tetA-harboring Methylomonas sp. DH-1 to NiCl2, wild-type cells and the cells containing the tetA gene in the plasmid (E. coli) or in the genome (Methylomonas sp. DH-1) were incubated in an LB (E. coli) or NMS (Methylomonas sp. DH-1) agar plate with different concentrations of NiCl2 (0.5–8 mM). The optimal NiCl2 concentrations that were determined to counter select tetA-removed cells were 2 mM and 4 mM for E. coli and Methylomonas sp. DH-1, respectively.

[6] = test system: wild-type and tetA-harboring Methylomonas sp. DH-1; assay: NiCl2 susceptibility, colony counts on NMS agar; assay type: cell-based; settings: for Number of colonies, Wild-type cells: Methylomonas sp. DH-1, NMS agar; for Number of colonies, tetA-harboring cells: Methylomonas sp. DH-1 with genomic tetA, NMS agar
Experimental: as §2

Compound: R9-TAT (GRRRRRRRRRPPQ; also: TAMRA label, site not given here) [CPP 14]
- Cell penetration efficiency (TAMRA fluorescence), Electrooration - Tris buffer (E. coli DH5α cells [1]; replicate 1): 1652.65 A.U.
- Cell penetration efficiency (TAMRA fluorescence), Electrooration - Tris buffer (E. coli DH5α cells [1]; replicate 2): 2400.94 A.U.
- Cell penetration efficiency (TAMRA fluorescence), Electrooration - Tris buffer (E. coli DH5α cells [1]; replicate 3): 906.944 A.U.
- Cell penetration efficiency (TAMRA fluorescence), Electrooration - Tris buffer (E. coli DH5α cells [1]; replicate 4): 1858.43 A.U.
- Cell penetration efficiency (TAMRA fluorescence), Electrooration - DW (E. coli DH5α cells [1]; replicate 1): 871.282 A.U.
- Cell penetration efficiency (TAMRA fluorescence), Electrooration - DW (E. coli DH5α cells [1]; replicate 2): 655.834 A.U.
- Cell penetration efficiency (TAMRA fluorescence), Electrooration - DW (E. coli DH5α cells [1]; replicate 3): 728.231 A.U.
- Cell penetration efficiency (TAMRA fluorescence), Chemical (CaCl2) method - Tris buffer (E. coli DH5α cells [2]; replicate 1): 247.778 A.U.
- Cell penetration efficiency (TAMRA fluorescence), Chemical (CaCl2) method - Tris buffer (E. coli DH5α cells [2]; replicate 2): 278.483 A.U.
- Cell penetration efficiency (TAMRA fluorescence), Chemical (CaCl2) method - Tris buffer (E. coli DH5α cells [2]; replicate 3): 297.356 A.U.
- Cell penetration efficiency (TAMRA fluorescence), Chemical (CaCl2) method - DW (E. coli DH5α cells [2]; replicate 1): 1405.86 A.U.
- Cell penetration efficiency (TAMRA fluorescence), Chemical (CaCl2) method - DW (E. coli DH5α cells [2]; replicate 2): 216.364 A.U.
- Cell penetration efficiency (TAMRA fluorescence), Chemical (CaCl2) method - DW (E. coli DH5α cells [2]; replicate 3): 286.408 A.U.
- Penetration efficiency (TAMRA FI) (E. coli DH5α cells [2]; TAMRA fluorescence intensity in E. coli, library screen of 98 CPPs): 1704.74
- Max OD (%) (Figure 3f) (E. coli DH5α cells [3]; replicate 1): 76.3087%
- Max OD (%) (Figure 3f) (E. coli DH5α cells [3]; replicate 2): 63.2803%
- Max OD (%) (Figure 3f) (E. coli DH5α cells [3]; replicate 3): 64.6762%
- Growth rate (%) (E. coli DH5α cells [3]; E. coli growth with CPP, relative to control): 68.0884%
- Anti-bacterial activity (E. coli DH5α cells [3]; class (Cytotoxic / Safe), cutoff of 50%): Safe
- Cell penetration efficiency (TAMRA fluorescence), Control (E. coli DH5α cells [4]; replicate 1): 29.4004 A.U.
- Cell penetration efficiency (TAMRA fluorescence), Control (E. coli DH5α cells [4]; replicate 2): 32.4749 A.U.
- Cell penetration efficiency (TAMRA fluorescence), Control (E. coli DH5α cells [4]; replicate 3): 29.0426 A.U.

Compound: [Cl][Ni][Cl] [NiCl2]
- Number of colonies, Plasmid-harboring cells ([5]; NiCl2 1.8 mM): 10.67 ± 2.27
- Number of colonies, Plasmid-harboring cells ([5]; NiCl2 1.9 mM): 4 ± 1.15
- Number of colonies, Plasmid-harboring cells ([5]; NiCl2 2 mM): 0.34 ± 0.19
- Number of colonies, Plasmid-harboring cells ([5]; NiCl2 2.1 mM): 0
- Number of colonies, Plasmid-harboring cells ([5]; NiCl2 2.2 mM): 0
- Number of colonies, Plasmid-harboring cells ([5]; NiCl2 2.3 mM): 0
- Number of colonies, Plasmid-harboring cells ([5]; NiCl2 >2.30 mM): 0
- Number of colonies, Wild-type cells ([5]; NiCl2 1.8 mM): 2492 ± 94.27
- Number of colonies, Wild-type cells ([5]; NiCl2 1.9 mM): 2065.33 ± 181.07
- Number of colonies, Wild-type cells ([5]; NiCl2 2 mM): 1010.67 ± 121.71
- Number of colonies, Wild-type cells ([5]; NiCl2 2.1 mM): 776 ± 73.11
- Number of colonies, Wild-type cells ([5]; NiCl2 2.2 mM): 29 ± 4.40
- Number of colonies, Wild-type cells ([5]; NiCl2 2.3 mM): 0.67 ± 0.19
- Number of colonies, Wild-type cells ([5]; NiCl2 >2.30 mM): 0
- NiCl2 concentration up to which wild-type E. coli cells were capable of growing ([5]; LB agar plates, 37 °C, 24 h): 2.2 mM
- Growth of tetA-harboring E. coli cells on plates containing 2.0 mM NiCl2 ([5]; LB agar plates, 37 °C, 24 h, 2.0 mM NiCl2): not able to grow
- Number of colonies, Wild-type cells ([6]; NiCl2 0.5 mM): 180 ± 6.42
- Number of colonies, Wild-type cells ([6]; NiCl2 1 mM): 128 ± 10.50
- Number of colonies, Wild-type cells ([6]; NiCl2 2 mM): 114 ± 4.04
- Number of colonies, Wild-type cells ([6]; NiCl2 4 mM): 87 ± 16.09
- Number of colonies, Wild-type cells ([6]; NiCl2 8 mM): 21 ± 5.03
- Number of colonies, Wild-type cells ([6]; NiCl2 >8.0 mM): 0
- Number of colonies, tetA-harboring cells ([6]; NiCl2 0.5 mM): 119 ± 6.42
- Number of colonies, tetA-harboring cells ([6]; NiCl2 1 mM): 125 ± 4.40
- Number of colonies, tetA-harboring cells ([6]; NiCl2 2 mM): 3 ± 2.08
- Number of colonies, tetA-harboring cells ([6]; NiCl2 4 mM): 0
- Number of colonies, tetA-harboring cells ([6]; NiCl2 8 mM): 0
- Number of colonies, tetA-harboring cells ([6]; NiCl2 >8.0 mM): 0
